# Experimental data as given in ChEMBL document CHEMBL1158709, “Cytotoxic flavanones of Schizolaena hystrix from the Madagascar rainforest” (J Nat Prod, 2005).
# Test system: A2780
# Experiment: Cytotoxicity against human A2780 cells
# Type: functional, cell-based
row,SMILES,IC50 [mg/L]
1,COc1ccc([C@@H]2CC(=O)c3c(cc(O)c(C/C=C(\C)CCC=C(C)C)c3O)O2)cc1,17
2,CC(C)=CCC/C(C)=C/Cc1c(O)cc2c(c1O)C(=O)[C@H](O)[C@@H](c1ccc(O)cc1)O2 [BONANNIOL A],25
3,CC(C)=CCC/C(C)=C/Cc1c(O)cc2c(c1O)C(=O)C[C@@H](c1ccc(O)cc1)O2 [BONANNIONE A],12
4,CC(C)=CCc1cc([C@@H]2CC(=O)c3c(cc(O)c(CC=C(C)C)c3O)O2)ccc1O [MACARANGAFLAVANONE B],16
5,CC(C)=CCC/C(C)=C/Cc1c(O)cc2c(c1O)C(=O)C[C@@H](c1ccc(O)c(O)c1)O2 [NYMPHAEOL A],5.5
6,CC(C)=CCC/C(C)=C/Cc1cc([C@@H]2CC(=O)c3c(cc(O)c(CC=C(C)C)c3O)O2)ccc1O [SCHIZOLAENONE A],10
7,CC(C)=CCC/C(C)=C/Cc1cc([C@@H]2CC(=O)c3c(cc(O)c(CC=C(C)C)c3O)O2)cc(O)c1O [SCHIZOLAENONE B],11
